# Literature values in US8389248B2, “Deoxyketohexose isomerase and method for producing deoxyhexose and derivative thereof using same” (priority 2006, dated 2013).
# Tested on: L-rhamnose isomerase
# Details: for Influence of chelating agents on enzyme activity: chelating agent concurrently present during the assay of the activity
smiles,measurement,setting,value
O=C(O)CN(CCN(CC(=O)O)CC(=O)O)CC(=O)O [EDTA],Influence of chelating agents on enzyme activity,,hardly inhibited
O=C(O)CN(CCOCCOCCN(CC(=O)O)CC(=O)O)CC(=O)O [EGTA],Influence of chelating agents on enzyme activity,,hardly inhibited
[Co+2] [cobalt ion],Influence of metal ions: inhibition of the enzyme,1 mM,about 30%
